Assay results from US8835428B2, “Diacylglycerol acyltransferase inhibitors” (Piramal Enterprises Limited, priority 2008, dated 2014).

molecular target: T1, hDGAT1 (Homo sapiens, UniProt O75907); assay: In-vitro DGAT1 assay (hDGAT1 microsomes from Sf9 cells, 14C oleoyl CoA, triglyceride formation); assay type: biochemical; settings: At 1 μM
T1 construct: host or cells: Sf9 insect cells (baculovirus); microsomal preparation
T1 sequence (O75907 1-488): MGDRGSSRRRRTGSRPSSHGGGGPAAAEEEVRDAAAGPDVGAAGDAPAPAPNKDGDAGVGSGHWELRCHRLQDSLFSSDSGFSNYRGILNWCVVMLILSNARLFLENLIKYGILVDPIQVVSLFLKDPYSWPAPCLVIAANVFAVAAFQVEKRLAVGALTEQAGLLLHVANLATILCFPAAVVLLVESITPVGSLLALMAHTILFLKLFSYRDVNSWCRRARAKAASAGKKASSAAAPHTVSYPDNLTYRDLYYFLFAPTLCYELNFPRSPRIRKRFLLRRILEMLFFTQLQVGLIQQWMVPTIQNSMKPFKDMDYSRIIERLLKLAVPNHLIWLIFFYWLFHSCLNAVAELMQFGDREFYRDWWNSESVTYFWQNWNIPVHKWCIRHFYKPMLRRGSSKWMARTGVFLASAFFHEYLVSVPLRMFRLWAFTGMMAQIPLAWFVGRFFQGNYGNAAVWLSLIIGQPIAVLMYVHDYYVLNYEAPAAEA
Experimental: In-vitro Protocol for DGAT1 Assay
Sf9 Culture and Treatment
Sf9 cells were grown in T25 flasks containing Graces's Insect media with 10% FBS with antibiotic (100 units/mL penicillin, 100 μg/mL streptomycin sulphate, 0.25 μg/mL Amptotericin B as Fungizone) grown in a 27° C. incubator:
hDGAT1ORF expression clone (RZPDo839C09146 in pDEST vector) was obtained from RZPD, Germany. hDGAT1 bacmid DNA was obtained by transformation of the hDGAT expression clone into DH10Bac E. coli competent cells. Approximately 1 μg of hDGAT1 bacmid DNA was infected into Sf9 cells with Cellfectin (Invitrogen) reagent. Following infection, Sf9 cells were incubated at 27° C. for 30 minutes. Five hours after infection, the media was replaced with growth media containing antibiotic (100 units/mL penicillin, 100 μg/mL streptomycin sulphate, 0.25 μg/mL Amptotericin B as Fungizone) and incubated at 27° C. for 72 hours. The supernatant containing the virus was centrifuged at 1500×g for 5 minutes, passed through 0.22 μm filter, and subsequently stored at 4° C. The virus was further amplified three more times by re-infection of Sf9 cells and the viral titer was determined by plaque assay.
Preparation of DGAT1 Microsomes from Sf9 Cells
Sf9 cells were seeded in spinner flasks on day 0 at a cell density of 1×10^6 and infected on day 1 with hDGAT1 baculovirus at a multiplicity of infection (MOI) of 5 and a cell density of 2×10^6. On day 3 (or 66-72 hours), cells were harvested and centrifuged at 2500×g for 10 minutes. Pellet was resuspended in lysis buffer (100 mM sucrose, 50 mM KCl, 40 mM KH2PO4, 30 mM EDTA, pH 7.2) and passed through 21-gauge needle approximately 10 times. The mixture was centrifuged at 12,000 rpm in a Sigma 12158-H rotor at 4° C. for 30 minutes. The supernatant was subjected to centrifugation at 35,000 rpm in a Beckman Ti-45 rotor at 4° C. for 1 hour. The resultant pellet containing the microsomes were resuspended overnight in 1 mL of lysis buffer and total protein concentration was estimated using Bradford Reagent. Microsomes were aliquoted and stored at −20° C.
Measurement of DGAT1 Activity
Frozen aliquots of hDGAT1 containing microsomes were thawed (5-10 mg/mL total protein) on ice and diluted to a working stock of 1 mg/mL with DGAT Assay Buffer (DAB). The DGAT reaction assay was performed by following the procedure described in U.S. Pat. No. 6,607,893 with some modifications that are described below.
Preparation of DGAT1 substrate mixture: 1 mL stock solution of DGAT1 substrate mixture contains (i) 5.6 μL of ^14C oleoyl CoA (16.8 nCi) and 35 μL 1,2-dioleoyl-sn-glycerol (409.5 μM) or (ii) 5.6 μL of ^14C oleoyl CoA (16.8 nCi) and 105 μL 1,2-dioleoyl-sn-glycerol (1228.5 μM) or (iii) 5.6 μL of ^14C oleoyl CoA (16.8 nCi) and 140 μL 1,2-dioleoyl-sn-glycerol (1638 μM).
1,2-sn-dioleoylglycerol substrate concentration in the 1 mL stock solution of DGAT1 substrate mixture was varied depending on the microsome concentration used in the assay reaction. 1,2-dioleoyl-sn-glycerol stock (19.5 mM) was prepared by dissolving 25 mg of 1,2-dioleoyl-sn-glycerol (Sigma, US) in 2060 μL of acetone. The assay was performed in duplicates in a reaction volume of 100 μL. The reaction volume consisted of: • (i) 27.5 μL of DGAT assay buffer (0.25M Sucrose, 1 mM EDTA (pH 8.0), 150 mM Tris-HCl, pH 7.4, 1.25 mg/mL, fatty acid free BSA), • (ii) 10 μL of compound, of present invention or standard (dissolved in DMSO and diluted to 10× with DAB and screened at 10 μM, 5 μM and 1 μM), • (iii) 60 μL DGAT1 substrate mixture taken from a 1 mL stock (16.8 nCi of ^14C oleoyl CoA and 409.5 μM or 1228.5 μM or 1638 μM of 1,2-dioleyl-sn-glycerol), • (iv) 2.5-10 μL of 1 mg/mL of microsomes (the amount of assay buffer was varied depending upon the concentration of microsome to make up the volume to 100 μL). Procedure:
The reaction was started by the addition of 2.5-10 μL of 1 mg/mL of microsomes (iv) to a mixture of (i), (ii) and (iii), vortexed and incubated at 37° C. for 10 minutes. […]

inhibition at 1 µM [%] | Molecule
50 to 75 | CC(C)[C@@H](NC(=O)c1cc(-c2ccc(NC(=O)Nc3ccc(C#N)cc3)cc2)no1)C(=O)O [Example 219, (R)-2-(3-(4-(3-(4-Cyanophenyl)ureido)phenyl)isoxazole-5-carboxamido)-3-methylbutanoic acid]
0 to 50 | CC(C)[C@H](NC(=O)c1cc(-c2ccc(NC(=O)Nc3ccc(Cl)nc3)cc2)no1)C(=O)O [Example 207, (S)-2-(3-(4-(3-(6-chloropyridin-3-yl)ureido)phenyl)isoxazole-5-carboxamido)-3-methylbutanoic acid]

same assay, conditions: At 5 μM

inhibition at 5 µM [%] | Molecule
50 to 75 | CC(C)[C@H](NC(=O)c1nc(-c2ccc(NC(=O)Nc3ccc(F)cc3)cc2)no1)C(=O)O [Example 343, (S)-2-(3-(4-(3-(4-Fluorophenyl)ureido)phenyl)-1,2,4-oxadiazole-5-carboxamido)-3-methylbutanoic acid]
50 to 75 | COc1ccc(NC(=O)Nc2ccc(-c3noc(C(=O)N[C@H](C(=O)O)C(C)C)n3)cc2)cc1 [Example 345, (S)-2-(3-(4-(3-(4-methoxyphenyl)ureido)phenyl)-1,2,4-oxadiazole-5-carboxamido)-3-methylbutanoic acid]
0 to 50 | COC(=O)[C@@H](NC(=O)c1cc(-c2ccc(NC(=S)Nc3ccc(C)cc3)cc2)no1)C(C)C [Example 271, (S)-Methyl 3-methyl-2-(3-(4-(3-p-tolylthioureido)phenyl)isoxazole-5-carboxamido)butanoate]
0 to 50 | COC(=O)C(NC(=O)c1cc(-c2ccc(NC(=O)Nc3ccccn3)cc2)no1)C(C)C (stereo not shown) [Example 279, Methyl 3-methyl-2-(3-(4-(3-pyridin-2-ylureido)phenyl)isoxazole-5-carboxamido)butanoate]
0 to 50 | COC(=O)[C@@H](NC(=O)c1nc(-c2ccc(NC(=O)NCc3ccccc3)cc2)no1)C(C)C [Example 352, (S)-methyl 2-(3-(4-(3-benzylureido)phenyl)-1,2,4-oxadiazole-5-carboxamido)-3-methylbutanoate]
75 to 100 | CC(C)C(NC(=O)c1cc(-c2ccc(NC(=O)Nc3cccc(F)c3)cc2)no1)C(=O)O (stereo not shown) [Example 152, 2-(3-(4-(3-(3-fluorophenyl)ureido)phenyl)isoxazole-5-carboxamido)-3-methylbutanoic acid]
0 to 50 | Cc1ccccc1S(=O)(=O)NC(=O)Nc1ccc(-c2cc(C(=O)NC(C(=O)O)C(C)C)on2)cc1 (stereo not shown) [Example 264, 3-Methyl-2-(3-(4-(3-(o-tolylsulfonyl)ureido)phenyl)isoxazole-5-carboxamido)butanoic acid]

same assay, conditions: At 10 μM

inhibition at 10 µM [%] | % inhibition of hDGAT1 | Molecule
0 to 50 | – | COC(=O)[C@@H]1CCCN1C(=O)c1cc(-c2cccc(Nc3nc4ccc(F)cc4s3)c2)no1 [Example 34, (S)-1-{3-[3-(6-Fluoro-benzothiazol-2-ylamino)-phenyl]-isoxazole-5-carbonyl}-pyrrolidine-2-carboxylic acid methyl ester]
50 to 75 | – | CCOC(=O)c1cc(-c2ccc(Nc3nc4ccc(F)cc4s3)cc2)no1 [Example 1, 3-[4-(6-Fluoro-benzothiazol-2-ylamino)-phenyl]-isoxazole-5-carboxylic acid ethyl ester]
50 to 75 | – | CC(C)C[C@H](NC(=S)c1cc(-c2ccc(Nc3nc4ccc(F)cc4s3)cc2)no1)C(=O)O [Example 49, (S)-2-({3-[4-(6-Fluoro-benzothiazol-2-ylamino)-phenyl]-isoxazole-5-carbothioyl}-amino)-4-methyl-pentanoic acid]
– | +++ (>75% Inhibition ≦100) | 7-{3-[4-(6-Fluoro-benzothiazol-2-ylamino)-phenyl]-isoxazole-5-yl}-9-oxa-6,8-diaza-spiro[4,5]dec-7-en-10-one [Example 67]
50 to 75 | – | CC(C)[C@@H](NC(=O)c1cc(-c2ccc(Nc3nc4ccc(F)cc4s3)cc2)no1)C(=O)O [Example 42, (R)-2-({3-[4-(6-Fluoro-benzothiazol-2-ylamino)-phenyl]-isoxazole-5-carbonyl}-amino)-3-methyl-butyric acid]
– | +++ (>75% Inhibition ≦100) | CC(C)[C@H](NC(=O)c1cc(-c2ccc(NC(=O)Nc3ccc(F)cc3)c(F)c2)no1)C(=O)O [Example 97]
0 to 50 | – | Cc1ccc(NC(=O)Nc2ccc(F)cc2)cc1-c1cc(C(=O)NC(CC(C)C)C(=O)O)on1 (stereo not shown) [Example 132, 2-(3-(5-(3-(4-fluorophenyl)ureido)-2-methylphenyl)isoxazole-5-carboxamido)-4-methylpentanoic acid]
75 to 100 | – | CCC(C)[C@H](NC(=O)c1cc(-c2ccc(NC(=O)Nc3ccccc3)cc2)no1)C(=O)O (stereo partly drawn) [Example 79, (S)-3-Methyl-2-({3-[4-(3-phenyl-ureido)-phenyl]-isoxazole-5-carbonyl}-amino)-pentanoic acid]
0 to 50 | – | CCC(C)[C@H](NC(=O)c1cc(-c2ccc(NC(=O)Nc3ccccc3)cc2)no1)C(=O)OC (stereo partly drawn) [Example 78, (S)-3-Methyl-2-({3-[4-(3-phenyl-ureido)-phenyl]-isoxazole-5-carbonyl}-amino)-pentanoic acid methyl ester]
0 to 50 | – | COC(=O)C(NC(=O)c1cc(-c2ccc(NC(=O)Nc3ccc(OC)cc3)cc2)no1)C(C)C (stereo not shown) [Example 127, Methyl 2-(3-(4-(3-(4-methoxyphenyl)ureido)phenyl)isoxazole-5-carboxamido)-3-methylbutanoate]
0 to 50 | – | COC(=O)[C@H](CC(C)C)NC(=O)c1onc(-c2ccc(NC(=O)Nc3ccccc3)cc2)c1-c1ccccc1 [Example 90, (S)-4-Methyl-2-({4-phenyl-3-[4-(3-phenyl-ureido)-phenyl]-isoxazole-5-carbonyl}-amino)-pentanoic acid methyl ester]
0 to 50 | – | COC(=O)[C@@H](NC(=S)c1cc(-c2cccc(Nc3nc4ccc(F)cc4s3)c2)no1)C(C)C [Example 24, (S)-2-({3-[3-(6-Fluoro-benzothiazol-2-ylamino)-phenyl]-isoxazole-5-carbothioyl}-amino)-3-methyl-butyric acid methyl ester]
0 to 50 | – | CC(C)C[C@H](NC(=O)c1onc(-c2ccc(Nc3nc4ccc(F)cc4s3)cc2)c1-c1ccccc1)C(=O)O [Example 95, (S)-2-({3-[4-(6-Fluoro-benzothiazol-2-ylamino)-phenyl]-4-phenyl-isoxazole-5-carbonyl}-amino)-4-methyl-pentanoic acid]
